Reference: US20250011881A1, “MYC-HSF1 DUAL AMPLIFICATION AS A BIOMARKER FOR CANCER TREATMENT” (The Trustees of Indiana University, priority 2023, published 2025)
Values joined by “and” are separate entries in the source; they are usually repeats but may differ in a detail not shown here. Equal entries are not always repeated. Structures can show the parent of a compound that is named as a salt.

tested on: ovarian cancer cells with (OVCAR8, OVCAR4) or without (OVSAHO, CAOV3) MYC-HSF1 amplification; assay: Epigenetic inhibitor drug screen, cell viability (Cell Titer Blue); assay type: cell-based; settings: not given

Row | SMILES | Non Amp - AMP (POC) 10 uM [POC]
1 | C/C(O)=C(\C#N)C(=O)Nc1cc(Br)ccc1Br [LFM-A13] | 5.442
2 | NC(=O)c1cccc2cn(-c3ccc([C@@H]4CCCNC4)cc3)nc12 [MK-4827] | −0.7556
3 | N=C1NC(=O)/C(=C/c2ccc(O)cc2)S1 [Mirin] | 4.24
4 | CO[C@@]12[C@H](COC(N)=O)C3=C(C(=O)C(C)=C(N)C3=O)N1C[C@@H]1N[C@@H]12 [Mitomycin C] | 14.14

same assay, conditions: 10 uM, 48 hrs; average relative cell viability (vs 1% DMSO) of non-amplified cells (OVSAHO, CAOV3) minus that of MYC-HSF1 amplified cells (OVCAR8, OVCAR4); positive = greater response in amplified cells

Row | SMILES | Non Amp - AMP (POC) 10 uM [POC]
5 | O=c1[nH]cnc2c1ncn2[C@@H]1O[C@H](CO)[C@@H](O)[C@H]1O [INO-1001] | −1.319
6 | O=C(O)CNC(=O)c1c(O)c2ccccc2n(Cc2ccccc2)c1=O [IOX2(Glycine)] | 10.17
7 | O=C(Nn1nnc2ccccc21)c1ccc(Cl)cc1Cl [ITSA-1 (ITSA1)] | 7.283
8 | NC(=O)c1ccc(I)c([N+](=O)[O-])c1 [Iniparib (BSI-201), Iniparib] | −7.53
9 | COc1cc2ncnc(Nc3ccc(O)cc3)c2cc1OC [JANEX-1] | −13.67
10 | O=C(NCc1ccccc1)c1c(/N=C/c2c(O)ccc3ccccc23)sc2c1CCCC2 [JGB1741] | 9.247
11 | Nc1nc(Nc2ccc(S(N)(=O)=O)cc2)nn1C(=O)c1c(F)cccc1F [JNJ-7706621] | −15.24
12 | COc1ccc(C2(CNC(=O)c3ccc(NC(=O)c4ccco4)cc3)CCOCC2)cc1 [JW 55] | −6.598
13 | O=S(=O)(NCCSSCCNS(=O)(=O)c1cc(Cl)ccc1Cl)c1cc(Cl)ccc1Cl [KC7F2] | −3.553
14 | CC(=O)SCC(=O)c1ccc(NS(=O)(=O)c2ccc(OCCCN(C)C)cc2)nc1 [KD 5170] | 12.43
15 | O=C(c1ccc(/C=C/c2n[nH]c3ccccc23)cc1)N1CCNCC1 [KW 2449] | 6.231
16 | COc1ccc(S(=O)(=O)ON=C2C=C(C)C(=O)C(C)=C2)cc1 [L002] | −39.83
17 | O=C(O)CC[C@H](O)C(=O)O [L-a-Hydroxyglutaric Acid] | −7.873
18 | Cc1cn(CCN2CCN(c3ccccc3-c3cc(C#N)cc(C(=O)NCCCN4CCCC4)c3)CC2)c2ccccc12 [LLY507] | −14.82
19 | Cc1cc(Nc2cc(CN3CCOCC3)c3nc(C)c(Cc4ccc(Cl)cc4F)n3n2)n[nH]1 [LY2784544] | −1.068
20 | CC(C)OC(=O)CCC/C=C\C[C@@H]1[C@@H](CC[C@@H](O)CCc2ccccc2)[C@H](O)C[C@@H]1O [Latanoprost] | −8.842
21 | Nc1nc(OCc2cc(Br)cs2)c2[nH]cnc2n1 [Lomeguatrib] | 9.851
22 | CN(C)c1ccc(C(=O)NCCCCCCC(=O)NO)cc1 [M344] | 22.65

Row | SMILES | Non Amp - AMP (POC) 10 uM [POC]
23 | CCC1C/C(=C\c2cccnc2)C(=O)/C(=C/c2cccnc2)C1 (centres unmarked) [MCB-613] | −5.355
24 | C[C@H](NC(=O)CCc1nc2ccccc2c(=O)[nH]1)c1ccccc1 [ME0328] | 15.81
25 | CCCCCCCc1ccc(CCc2cccc(O)c2C(=O)O)cc1 [MG 149] | −0.4614
26 | O=C(O)[C@]1(Cc2cccc(Nc3nccs3)n2)CC[C@@H](Oc2cccc(Cl)c2F)CC1 [MK-5108 (VX-689)] | 0.08992
27 | O=C(c1cccc(Cl)c1F)N1CCN(Cc2cccc(Nc3nccs3)n2)CC1 [MK-8745] | 10.66
28 | O=C(O)c1ccc(Nc2ncc3c(n2)-c2ccc(Cl)cc2C(c2c(F)cccc2F)=NC3)cc1 [MLN8054] | −12.87
29 | COc1cc(Nc2ncc3c(n2)-c2ccc(Cl)cc2C(c2c(F)cccc2OC)=NC3)ccc1C(=O)O [MLN8237 (Alisertib), Alisertib] | −25.51
30 | CC(C)c1ccc(-c2cc(=O)c3ccccc3o2)cc1 [MN 64] | −7.835
31 | CNCCN1CCC(OCc2ccccc2)CC1.Cl.Cl [MS049 (hydrochloride)] | −3.654
32 | Cc1cc(/N=N/c2ccc(S(=O)(=O)Nc3ccccn3)cc2)c(N)cc1O [MS436] | 8.852
33 | COC(=O)/C=C/C(=O)N(O)CCCCNCc1ccc(COC(=O)Nc2cccc3ccccc23)cc1 [Methylstat (hydrate), Methylstat] | −5.079
34 | CO[C@@H]1[C@H](N(C)C(=O)c2ccccc2)C[C@H]2O[C@]1(C)n1c3ccccc3c3c4c(c5c6ccccc6n2c5c31)C(=O)NC4 [Midostaurin (PKC412), Midostaurin] | −9.891
35 | O=C1c2c(O)ccc(O)c2C(=O)c2c(NCCNCCO)ccc(NCCNCCO)c21 [Mitoxantrone HCl] | 11.28
36 | O=c1c(-n2ccnn2)c[nH]n1-c1cc(N2CCOCC2)ncn1 [Molidustat (BAY85-3934), Molidustat] | −4.287
37 | C[C@@H]1O[C@@H](Oc2c(-c3cc(O)c(O)c(O)c3)oc3cc(O)cc(O)c3c2=O)[C@H](O)[C@H](O)[C@H]1O [Myricetrin] | −0.2723
38 | O=C(O)CNC(=O)C(=O)O [N-Oxalylglycine] | 14.36
39 | COc1cc(C#N)ccc1S(=O)(=O)Nc1ccc2c(c1)cc(C)c(=O)n2C [NI-57] | 11.2

same assay, conditions: 10 uM, 48 hrs; average relative cell viability (vs 1% DMSO) of non-amplified cells (OVSAHO, CAOV3) minus that of MYC-HSF1 amplified cells (OVCAR8, OVCAR4); positive = greater response in amplified cells; 10 µM

Row | SMILES | Non Amp - AMP (POC) 10 uM
40 | O=C(O)c1ccc(O)c2ncccc12 [IOX1] | 11.45 POC
41 | CCN(CC)Cc1ccc2cc(COC(=O)Nc3ccc(C(=O)NO)cc3)ccc2c1 [ITF 2357, Givinostat] | 40.35 POC
42 | Clc1ccc(N/N=C(\c2ccccc2)c2ccccn2)nc1 [JIB-04] | 13.4 POC and 8.34 POC
43 | Cn1cc(CNCC2CCN(c3ncc(C(=O)NO)cn3)CC2)c2ccccc21 [JNJ-26481585] | 38.34 POC and 26.25 POC
44 | C[S+]([O-])CCCCN=C=S [L-Sulforaphane] | −5.74 POC
45 | O=C(/C=C/c1ccc(CN(CCO)CCc2c[nH]c3ccccc23)cc1)NO [LAQ824, Dacinostat] | 43.86 POC
46 | Cc1cc(C)cc(C(=O)NOCCCCCC(=O)NO)c1 [LMK 235] | 44.96 POC and 34.77 POC
47 | Cn1c(/C=C/C(=O)NO)ccc1/C=C/C(=O)c1cccc(F)c1 [MC 1568] | −4.947 POC
48 | CCCc1cc2c(N3CCN(C4=NCC(C)(C)S4)CC3)ncnc2s1 [MI-2 (hydrochloride)] | 6.017 POC
49 | CCCc1cc2c(N3CCN(C4=NCC(C)(C)S4)CC3)ncnc2s1 [MI-2] | 8.542 POC
50 | CN(C)CCCNC(=O)c1ccc(-c2cc(O)c3ncccc3c2)cc1 [ML-324] | 7.484 POC
51 | CCC(CC)(NC(=O)C(C)C)C(=O)N[C@@H](CCCN=C(N)N)C(=O)NC1(C(=O)NC(c2ccc(F)cc2)c2ccc(F)cc2)CCCC1 [MM-102] | 10.41 POC and 6.837 POC
52 | CC(C)Oc1ccc(-c2c[nH]cc2CN(C)CCN)cc1 [MS023 (hydrochloride)] | 6.531 POC
53 | CC(C)Oc1ccc(-c2c[nH]cc2CN(C)CCN)cc1 [MS023] | −0.6323 POC
54 | Nc1ccccc1NC(=O)c1ccc(CNc2nccc(-c3cccnc3)n2)cc1 [Mocetinostat] | 49.31 POC
55 | CC(C)C(=O)SCCCCCCC(=O)Nc1nc(-c2ccccc2)cs1 [NCH-51] | 27.52 POC

same assay, conditions: 10 uM, 48 hrs; average relative cell viability (vs 1% DMSO) of non-amplified cells (OVSAHO, CAOV3) minus that of MYC-HSF1 amplified cells (OVCAR8, OVCAR4); positive = greater response in amplified cells; listed as IOX 1, 10 µM

Row | SMILES | Non Amp - AMP (POC) 10 uM [POC]
56 | O=C(O)c1ccc(O)c2ncccc12 [IOX1] | 2.198

same assay, conditions: 10 uM, 48 hrs; average relative cell viability (vs 1% DMSO) of non-amplified cells (OVSAHO, CAOV3) minus that of MYC-HSF1 amplified cells (OVCAR8, OVCAR4); positive = greater response in amplified cells; listed as ITF2357 (Givinostat), 10 µM

Row | SMILES | Non Amp - AMP (POC) 10 uM [POC]
57 | CCN(CC)Cc1ccc2cc(COC(=O)Nc3ccc(C(=O)NO)cc3)ccc2c1 [ITF 2357, Givinostat] | 13.67

same assay, conditions: 10 uM, 48 hrs; average relative cell viability (vs 1% DMSO) of non-amplified cells (OVSAHO, CAOV3) minus that of MYC-HSF1 amplified cells (OVCAR8, OVCAR4); positive = greater response in amplified cells; listed as LAQ824 (NVP-LAQ824, Dacinostat), 10 µM

Row | SMILES | Non Amp - AMP (POC) 10 uM [POC]
58 | O=C(/C=C/c1ccc(CN(CCO)CCc2c[nH]c3ccccc23)cc1)NO [LAQ824, Dacinostat] | 28.82

same assay, conditions: 10 uM, 48 hrs; average relative cell viability (vs 1% DMSO) of non-amplified cells (OVSAHO, CAOV3) minus that of MYC-HSF1 amplified cells (OVCAR8, OVCAR4); positive = greater response in amplified cells; listed as MC1568, 10 µM

Row | SMILES | Non Amp - AMP (POC) 10 uM [POC]
59 | Cn1c(/C=C/C(=O)NO)ccc1/C=C/C(=O)c1cccc(F)c1 [MC 1568] | −17.78

same assay, conditions: 10 uM, 48 hrs; average relative cell viability (vs 1% DMSO) of non-amplified cells (OVSAHO, CAOV3) minus that of MYC-HSF1 amplified cells (OVCAR8, OVCAR4); positive = greater response in amplified cells; listed as ML324, 10 µM

Row | SMILES | Non Amp - AMP (POC) 10 uM [POC]
60 | CN(C)CCCNC(=O)c1ccc(-c2cc(O)c3ncccc3c2)cc1 [ML-324] | 4.315

same assay, conditions: 10 uM, 48 hrs; average relative cell viability (vs 1% DMSO) of non-amplified cells (OVSAHO, CAOV3) minus that of MYC-HSF1 amplified cells (OVCAR8, OVCAR4); positive = greater response in amplified cells; listed as Mocetinostat (MGCD0103, MG0103), 10 µM

Row | SMILES | Non Amp - AMP (POC) 10 uM [POC]
61 | Nc1ccccc1NC(=O)c1ccc(CNc2nccc(-c3cccnc3)n2)cc1 [Mocetinostat] | 36.88

same assay, conditions: 10 uM, 48 hrs; average relative cell viability (vs 1% DMSO) of non-amplified cells (OVSAHO, CAOV3) minus that of MYC-HSF1 amplified cells (OVCAR8, OVCAR4); positive = greater response in amplified cells; listed as NCH 51, 10 µM

Row | SMILES | Non Amp - AMP (POC) 10 uM [POC]
62 | CC(C)C(=O)SCCCCCCC(=O)Nc1nc(-c2ccccc2)cs1 [NCH-51] | 9.119
